Measured values: patent US20140242600A1, “IMAGING THE HETEROGENEOUS UPTAKE OF RADIOLABELED MOLECULES IN SINGLE LIVING CELLS” (priority 2011, published 2014)

Tests used:
[1] = test system: HeLa cells transduced with HSV1-ttk; assay: FHBG accumulation in HeLa cells transduced with mrfp1/HSV1-ttk reporter, radioluminescence and fluorescence microscopy; format: cell-based, human; details: 300 μCi 18F-FHBG 2 hours
From the text: To further exploit the microscope's ability to visualize both fluorescent and radioactive probe distributions, human cervical cancer cells (HeLa) were transduced with a dual fusion reporter vector, comprising reporter genes encoding the monomeric red fluorescent protein (mrfp1) and the mutant herpes simplex virus type 1 truncated thymidine kinase (HSV1-ttk). HSV1-ttk can selectively metabolize and trap radiolabeled substrates such as FHBG. Substrates such as 9-(4-[^18F]Fluoro-3hydroxymethylbutyl) guanine (^18F-FHBG) have low affinity for mammalian thymidine kinase (TK) enzymes but high affinity for HSV1-TK. FHBG is selectively metabolized and trapped within transduced cells so it can be used to image cell trafficking in living subjects with PET.
PCR amplification and standard cloning techniques were used to insert the mrfp and ttk genes from plasmid pCONA3.1-CMV-hrl-mrfp-ttk. Lentiviral EF1-gfp vectors were obtained and the gfp fragment was removed from the vector and replaced by mrfp-ttk. For PCR amplifications, different 5′ and 3′ end primers were used to generate the fusion vector (EF1-mrfp-ttk).
HeLa human cervical cancer and 293T human embryonic kidney cells were acquired and cultured in high-glucose Dulbecco's modified eagle medium supplemented with 10% fetal bovine serum. 293T cells were used to produce the lentivirus following standard procedures. HeLa cells were transduced with concentrated lentivirus for 48 hours and then trypsinized and seeded directly onto a scintillator plate coated with fibronectin (10 μg/ml), one day before imaging.
For imaging of cell transduction with FHBG and RFP, transduced HeLa cells were incubated for 2 hours with 300 μCi of ^18F-FHBG.
In transduced cells, accumulation of FHBG was coincident with expression of mrfp1 measured by fluorescence microscopy. A brightfield image (FIG. 5A), a radioluminescence image (FIG. 5B) and a fluorescence image (FIG. 5C) were obtained from the same field. It was seen that 88% of the cells visible on the brightfield image (217/245) were clearly distinguishable both on radioluminescence (FIG. 5B) and fluorescence images (FIG. 5C), while only 9% (21/245) could not be seen on either image. The remaining 7 cells were excluded from the analysis due to ambiguous radioluminescence intensity caused by the proximity to a strongly positive cell.

wild-type HeLa cells = assay: FHBG uptake in wild-type HeLa cells, radioluminescence microscopy; format: cell-based, human; details: FHBG 300 μCi, 2 h
From the text: Generally, radioluminescence signals for FHBG-positive and FHBG-negative cells were more distinctly separated than fluorescence signals for RFP-positive and RFP-negative cells.

[2] = test system: mammalian thymidine kinase (TK) enzymes; details: background statement; cited from earlier work
[3] = test system: HSV1-TK (Human herpesvirus 1); details: background statement; cited from earlier work
HeLa cells = assay: Radioluminescence microscopy of FDG uptake in HeLa cells on scintillator plate; format: cell-based; details: HeLa cells fasted 2 h, 400 μCi FDG 20 min 37° C., 20 minute exposure
Protocol: To visualize the uptake of radiotracer at the microscopic level, cells were cultured directly on a scintillating plate made of a material that converts incident beta radiation into optical photons via radioluminescence. In these experiments, scintillation plates were used with dimensions 10 mm×10 mm×0.5 mm that were made of CdWO4, a dense, high-Z, non-hygroscopic material, with both sides polished to allow for concurrent optical imaging (MTI Corp.). In one experiment, HeLa cells were seeded and cultured on the scintillating plate, immersed in cell culture medium (Dulbecco's Modified Eagle Medium containing 10% fetal calf serum) for 12-18 hours. After the cells had adhered to the surface of the scintillator plate and divided adequately, they were fasted for two hours in glucose-free cell medium and incubated for 20 minutes at 37° C. with 400 μCi of ^18F-fluorodeoxyglucose (FDG). […]
Radioluminescence images were taken with an EM gain of 251/1200, the excitation shutter closed, and the emission shutter open. […] Then, in luminescence mode, the image sharpness was optimized by varying the focal distance while acquiring 5 minute-exposure images. […]

[4] = test system: MDA-MB-231 human breast cancer cells; assay: Single-cell FDG uptake at a fixed time-point, radioluminescence and fluorescence microscopy; format: cell-based; details: glucose-deprived 1 hour
From the text: In this illustration, the common radiotracer [^18F]fluorodeoxyglucose (FDG) was used. […] The radioluminescence microscopy set-up consisted of cells adhering to a 100 μm-thin CdWO4 scintillator plate that was immersed in a glass-bottom dish filled with cell culture medium as shown schematically in FIG. 2. The dish was imaged using an inverted microscope fitted with a high-NA objective and an electron-multiplying charge-coupled device (EM-CCD).
Brightfield images were acquired with no EM gain, a neutral-density filter on the excitation, and the emission shutter open. […] The brightfield mode was used to set the microscope into focus. […] For fluorescence microscopy, a 460 nm/535 nm filter set for 2-NBDG imaging (Chroma, D460/50x and D535/40m) and a 540 nm/600 nm filter set for RFP imaging (Chroma, HQ540/40x and HQ600/50m) were used.
One side of the scintillator plate was coated with fibronectin (10 μg/ml) to allow the cells to attach. After the plate had dried, the cells were seeded by placing a 50 μl drop containing 10^4 cells on to the fibronectin-coated plate.
After washing the cells, brightfield, radioluminescence and fluorescence micrographs were acquired.
To measure radiotracer uptake in single cells, circular regions of interest (ROI's; diameter, 24 μm) were manually placed on the cells using the brightfield micrograph. […] The same procedure was also applied to fluorescence micrographs.

[5] = test system: breast cancer cells (MDA-MB-231); assay: Single-cell FDG uptake and efflux over time (pharmacokinetic study), serial radioluminescence imaging; format: cell-based, human
Protocol: To investigate the utility of radioluminescence microscopy for single-cell pharmacokinetic studies, FDG uptake, FDG efflux and FDG withdrawal conditions were analyzed. FDG uptake in breast cancer cells (MDA-MB-231) over time was monitored by depriving cells of glucose for 1 hour and then adding 5 μCi of FDG to the medium. Serial brightfield and radioluminescence images were acquired every 6 minutes for a period of 8 hours.
To monitor FDG efflux, breast cancer cells (MDA-MB-231) were subjected to conditions known to minimize FDG influx, i.e. thorough competition from glucose and withdrawal of FDG.
The influx of FDG into glucose-deprived cells was described using the following two-tissue compartmental kinetic model:
where Ca is the extracellular FDG concentration (assumed to be fixed); C(t) is the time-dependent intracellular FDG concentration (including free FDG and bound FDG-6-P); and K1, k2 and k3 are the rate constants representing influx, efflux, and irreversible phosphorylation of FDG, respectively. Fort>>1/(k2+k3, the intracellular and extracellular compartments are in equilibrium, and the intracellular concentration of FDG increases linearly with time due to irreversible trapping of FDG. The parameters of this linear rise (i.e. slope and intercept) are the Patlak coefficients. The slope of the linear rise is the product of two terms, namely K1 the influx rate, and k3/(k2+k3) is the fraction of the intracellular FDG irreversibly metabolized. A non-linear weighted least-squares fitting was used to estimate the parameters of the model. The fitting weights were adjusted to decrease the contribution of later time points, which have higher noise due to radioactive decay.
A mathematical model was also derived to represent FDG efflux from a cell. The model assumed that (1) following withdrawal of FDG, the concentration of FDG in the cell culture medium remained negligible due to the large extracellular volume (0.2 ml), and (2) k3>>k4. Under these assumptions, FDG concentration within a single cell can be described by the sum of a slow and a fast exponential decay.
Efflux of FDG from cells was modeled using a two-tissue compartmental model:
where a1 and a2 are positive coefficients that depend on the initial conditions, and λ1 and λ2 are the eigenvalues of the differential system of equations describing transport of FDG between compartments. The rate constant k4 which models the possible dephosphorylation of FDG-6-phosphate (FDG-6-P) was included in this model but assumed to be much smaller than k3. Furthermore, due to the large extracellular volume (0.2 ml), the concentration of FDG in the cell culture medium was assumed to remain negligible after withdrawal of FDG. Under these assumptions, the eigenvalues can be approximated as
These rate parameters were estimated by fitting the efflux model to the measured time-activity curves. For cells for which the solution of the fit yielded λ1≈λ2 or λ2<1 min^−1, the efflux curve was fitted with a single exponential function. In the special case of irreversible trapping (k4=0), the model is described by a single exponential decay with rate: λ1=k2+k3. The model was in agreement with radioluminescence measurements of single cells, confirming that two processes are occurring concurrently at different rates. Unbound FDG contained within the cell quickly diffuses out following concentration gradients, whereas FDG-6-phosphate (FDG-6-P) requires slow dephosphorylation to cross the cell membrane.

Chain of HSV1-TK (Human herpesvirus 1) (P0DTH5 whole entry): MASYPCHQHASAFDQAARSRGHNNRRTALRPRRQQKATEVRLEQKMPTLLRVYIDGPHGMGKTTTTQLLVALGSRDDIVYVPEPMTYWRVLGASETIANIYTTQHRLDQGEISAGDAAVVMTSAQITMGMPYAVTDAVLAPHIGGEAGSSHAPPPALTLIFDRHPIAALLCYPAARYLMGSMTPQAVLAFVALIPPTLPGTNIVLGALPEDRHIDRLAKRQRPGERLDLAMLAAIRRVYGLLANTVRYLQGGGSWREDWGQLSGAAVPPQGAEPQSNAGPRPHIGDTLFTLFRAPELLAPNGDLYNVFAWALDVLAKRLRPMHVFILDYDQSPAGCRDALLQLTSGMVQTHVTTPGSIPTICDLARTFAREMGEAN

Q: Which results are given for Nc1nc2c(ncn2CCC(CO)C[18F])c(=O)[nH]1 (stereo not drawn) [FHBG, 9-(4-[^18F]-fluoro-3-hydroxy-methylbutyl) guanine]?
A: radiotracer uptake pattern in transduced cells ([1]; 100× magnification): focal radiotracer uptake; cells that could not be seen on either radioluminescence or fluorescence image ([1]; 21/245 cells): 9%; cells visible on brightfield clearly distinguishable both on radioluminescence and fluorescence images ([1]; 217/245 cells): 88%; correlation (r) of RFP fluorescence intensity with FHBG radioluminescence intensity ([1]; transduced HeLa cells): 0.34; radioluminescence signal in wild-type HeLa cells (wild-type HeLa cells): no measurable radioluminescence signal; affinity for mammalian thymidine kinase (TK) enzymes [2]: low affinity; affinity for HSV1-TK [3]: high affinity

Q: Which “colocalization between cell outline (brightfield) and radioluminescence intensity” value (HeLa cells) does the source give for OC[C@H]1OC(O)[C@H]([18F])[C@@H](O)[C@@H]1O (stereo partly drawn) [FDG, ^18F-fluorodeoxyglucose] here?
A: good colocalization

Q: And the “cell-to-cell variation of radioluminescence intensity (FDG uptake)” value ([4]; FDG 400 μCi 1 hour 37° C.)?
A: varied significantly from cell to cell

Q: And the “correlation (r) of FDG uptake with uptake of 2-NBDG in single cells” value ([4]; FDG 400 μCi + 2-NBDG 100 μM 1 hour 37° C., P<10^−5)?
A: 0.74

Q: And the “cell radioactivity after withdrawal of FDG from the media” value ([5]; cells previously incubated with FDG 400 μCi, 1 hour)?
A: fast decrease in cell radioactivity

Q: What about the “cell radioactivity after addition of glucose to the medium” value ([5]; glucose 25 mM added at 2 hours) of the same compound?
A: decline in cell radioactivity

Q: What about the “time at which the majority of cells stopped accumulating FDG” value ([5]; glucose-deprived 1 hour, 5 μCi FDG in medium) of the same compound?
A: approximately 3 hours

Q: What about the “time course of cell radioactivity (FDG uptake)” value ([5]; glucose-deprived 1 hour, 5 μCi FDG, images every 6 minutes for 8 hours) of the same compound?
A: linear increase in radioactivity, followed by a plateau and a slow decrease after 3 hours

Q: And the “variation of Patlak coefficients across cells” value ([5]; two-tissue compartmental kinetic model of FDG influx)?
A: Large variations
